Data published in patent US8222218B2, “Cyclopropanated carbohydrates” (Seton Hall University, priority 2008, dated 2012).
Where two headings read alike, the source gives them in different places.

Experiments:
[1] = system: metabotropic glutamate receptors; conditions: background; cited from earlier work
[2] = background, previously made and tested; cited from earlier work
[3] = system: metrazole-induced clonic seizures; experiment: Subcutaneous Metrazole Seizure Threshold Test (scMET), mice; format: in vivo; conditions: Mus musculus, sc, mice
Summary of the method: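 CF1 mice dosed with test compound at 30, 100 and 300 mg/kg; Sprague-Dawley rats at 50 mg/kg p.o. At compound TPE, metrazole at CD97 (85 mg/kg in mice) injected s.c. in the neck. Animals observed 30 min; endpoint is a 3-5 s clonic spasm episode.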

[4] = Acute toxicity, minimal motor impairment (rotorod), mice; format: in vivo; conditions: mice, rotorod
Summary of the method: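 Mice placed on a rod rotating at 6 rpm; a compound is scored toxic when the animal falls off three times within 1 min. In rats, minimal motor deficit is scored as ataxia, an abnormal uncoordinated gait.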

MES-induced seizures = experiment: Maximal Electroshock Seizure (MES) test, mice; format: in vivo; conditions: Mus musculus, ip, mice, i.p.
Summary of the method: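 Seizures were induced by a 60 Hz corneal current for 2 s (50 mA in CF1 mice, 150 mA in Sprague-Dawley rats). Mice received 30, 100 or 300 mg/kg i.p. in 0.5% methylcellulose and were tested at several intervals; rats received 30 mg/kg p.o. Protection means abolition of hind-limb tonic extension.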

[5] = biological target: T1, cloned, human D1 receptor (Homo sapiens, UniProt P21728); experiment: Radioligand competition binding assay, [3H]SCH23390
T1 construct: expressed in transfected cells
Source text: Receptor binding profiles were provided by the National Institute of Mental Health's Psychoactive Drug Screening Program, Contract # N01 MH32004 (NIMH PDSP) The NIMH PDSP is directed by Bryan L. Roth M. D., Ph.D. at the University of North Carolina at Chapel Hill and Project Officer Jamie Driscol at NIMH, Bethesda Md., USA. Protocols for receptor-based assays by the PDSP may be found on the website: http://pdsp.med.unc.edu/pdspw/binding.php and http://pdsp.med.unc.edu/pdspw/function.php (Apr. 30, 2008).
Radioligand competition binding assays were performed as previously described (Rothman, R. B., Baumann, M. H., Savage, J. E., Rauser, L., McBride, Hufeisen, S. J., Roth B. L. Circulation (2000) 102:2836-2841) for Compounds 7 and 16. Briefly, test compounds were dissolved to 10 mM in 100% DMSO, then diluted to the desired concentrations (spanning seven orders of magnitude) in Dopamine Binding Buffer (50 mM NaCl, 50 mM HEPES, 5 mM MgCl2, 0.5 mM EDTA, pH 7.4). Diluted test and reference compounds were added to wells containing radioligand ([^3H]SCH23390, 0.3 nM final concentration) and buffer, then membrane fractions from cells stably expressing cloned, human D1 or D5 receptors were added and binding was allowed to equilibrate at room temperature for 1.5 hours. At equilibrium, reactions were filtered (using a FilterMate 96-well harvester, PerkinElmer) onto GF-A glass fiber filters (Wallac) and allowed to dry. Meltilex scintillant (Wallac) was melted onto the dry filters, and then allowed to cool. Filters were then sealed in plastic bags and counted on a Wallac TriLux microbeta counter.
Raw data (dpm) representing total radioligand binding (i.e., specific+non-specific binding) were plotted as a function of the logarithm of the molar concentration of the competitor (i.e., test or reference compound). Non-linear regression of the normalized (i.e., percent radioligand binding compared to that observed in the absence of test or reference compound) raw data is performed in Prism 4.0 (GraphPad Software) using the built-in three parameter logistic model describing ligand competition binding to radioligand-labeled sites: y=bottom+[(top−bottom)/(1+10^x−logIC50)] where bottom equals the residual radioligand binding measured in the presence of 10 μM reference compound (i.e., non-specific binding) and top equals the total radioligand binding observed in the absence of competitor. The log IC50 (i.e., the log of the ligand concentration that reduces radioligand binding by 50%) is thus estimated from the data and used to obtain the Ki by applying the Cheng-Prusoff approximation: Ki=IC50/(1+[ligand]/KD) where [ligand] equals the assay radioligand concentration and KD equals the affinity constant of the radioligand for the target receptor.

T1 sequence (P21728 whole entry): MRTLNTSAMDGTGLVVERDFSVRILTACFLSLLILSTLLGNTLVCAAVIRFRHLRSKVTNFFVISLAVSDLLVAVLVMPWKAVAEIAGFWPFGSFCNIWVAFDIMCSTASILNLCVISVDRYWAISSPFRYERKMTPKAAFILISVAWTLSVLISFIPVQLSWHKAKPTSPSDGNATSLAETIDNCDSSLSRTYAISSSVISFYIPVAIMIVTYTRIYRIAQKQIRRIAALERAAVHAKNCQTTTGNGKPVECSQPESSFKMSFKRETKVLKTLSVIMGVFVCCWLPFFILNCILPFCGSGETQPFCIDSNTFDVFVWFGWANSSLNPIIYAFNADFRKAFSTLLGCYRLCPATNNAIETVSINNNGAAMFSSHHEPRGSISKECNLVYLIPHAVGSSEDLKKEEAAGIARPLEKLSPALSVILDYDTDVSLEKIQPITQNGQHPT

In the case of “7-(hydroxyimino)cyclopropa[b]chromen-1a-carboxylate [Compound C]”, the “agonist activity at metabotropic glutamate receptors” value [1] is given as “active agonists”.
For `CNS(=O)(=O)OC[C@@]12OC[C@H]3OC(C)(C)O[C@H]3[C@@H]1OC(C)(C)O2` [A], the “anticonvulsant activity” value [2] is listed as “moderate anticonvulsant activity”.
In the case of `CC1(C)OC[C@@H]2O[C@@]3(COS(N)(=O)=O)OC(C)(C)O[C@H]3[C@@H]2O1` [B], the “anticonvulsant activity” value [2] is given as “moderate anticonvulsant activity”.
Work on `CCOC(=O)C1[C@H]2O[C@@H]3COC(C)(C)O[C@H]3C(=NO)[C@@H]12` (stereo partly drawn) [Compound 7, ethyl (4aR,5aS,6aR,7aS)-7-(hydroxyimino)-2,2-dimethylhexahydro-4H-cyclopropa[5,6]pyrano[3,2-d][1,3]dioxine-6-carboxylate] yielded a responders at 30 mg/kg ([3]; 0.4 h, read-out: scMET 30 0.4 h (animals protected/tested)) of 0%, a responders at 30 mg/kg ([3]; 0.5 h, read-out: scMET 30 0.5 h (animals protected/tested)) of 0% and a responders at 100 mg/kg ([3]; 0.4 h, read-out: scMET 100 0.4 h (animals protected/tested)) of 0%. For the same compound, the responders at 100 mg/kg ([3]; 0.5 h, read-out: scMET 100 0.5 h (animals protected/tested)) was 0%, the responders at 300 mg/kg ([3]; 0.4 h, read-out: scMET 300 0.4 h (animals protected/tested)) was 0% and the responders at 300 mg/kg ([3]; 0.5 h, read-out: scMET 300 0.5 h (animals protected/tested)) was 0%. The “TOX 30 0.5 h (animals toxic/tested)” value ([4]; 30 mg/kg, 0.5 h) was 0/4, the “TOX 30 4 h (animals toxic/tested)” value ([4]; 30 mg/kg, 4 h) was 0/2 and the “TOX 100 0.5 h (animals toxic/tested)” value ([4]; 100 mg/kg, 0.5 h) was 1/8. For the same compound, the “TOX 100 4 h (animals toxic/tested)” value ([4]; 100 mg/kg, 4 h) was 0/4, the “TOX 300 0.5 h (animals toxic/tested)” value ([4]; 300 mg/kg, 0.5 h) was 3/4 and the “TOX 300 4 h (animals toxic/tested)” value ([4]; 300 mg/kg, 4 h) was 1/2. It also gave a responders at 30 mg/kg (MES-induced seizures; 0.5 h, read-out: MES 30 0.5 h (animals protected/tested)) of 0%, a responders at 30 mg/kg (MES-induced seizures; 4 h, read-out: MES 30 4 h (animals protected/tested)) of 0% and a responders at 100 mg/kg (MES-induced seizures; 0.5 h, read-out: MES 100 0.5 h (animals protected/tested)) of 0%. It also gave a responders at 100 mg/kg (MES-induced seizures; 4 h, read-out: MES 100 4 h (animals protected/tested)) of 0%, a responders at 300 mg/kg (MES-induced seizures; 0.5 h, read-out: MES 300 0.5 h (animals protected/tested)) of 0% and a responders at 300 mg/kg (MES-induced seizures; 4 h, read-out: MES 300 4 h (animals protected/tested)) of 0%. For the same compound, the Ki ([5]; D1 dopamine receptor, [3H]SCH23390 0.3 nM, Cheng-Prusoff) was 6.23 µM and the “inhibition of the D1 dopamine receptor” value ([5]; radioligand competition binding) was “significant inhibition”.
For `CC1(C)O[C@@H]2[C@@H](CO[C@@]3(COS(N)(=O)=O)OC(C)(C)O[C@@H]23)O1` [topiramate], the “anticonvulsant activity” value [2] is listed as “greater anticonvulsant activity”.
